Experimental data taken from patent US12595248B2, “PRMT5 inhibitors” (Merck Sharp & Dohme LLC, priority 2019, dated 2026).
Where two headings read alike, the source gives them in different places.

Columns and labels:
PRMT5 = target: T1, PRMT5 (Homo sapiens, UniProt O14744); assay: PRMT5 Cell Target Engagement (TE) Assay; assay type: cell-based; conditions: MCF-7 cells, treated for 3 days, symmetric dimethylation of arginine (SDMA) by high content imaging
T1 construct: seeded with 4000 MCF-7 cells in 30 μl media; endogenous in cells; host or cells: MCF-7 cells
Outline: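 MCF-7 cells treated 3 days at 37 °C with a ten-point 1:3 titration from 10000 nM. Fixed cells immunostained with anti-SDMA and Alexa488 secondary; nuclear fluorescence quantified by high-content imaging versus DMSO wells, with IC50 from a 4-parameter fit.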

[1] = target: T2, PRMT5-MEP50 enzyme complex (Homo sapiens, UniProt O14744); assay: PRMT5-MEP50 Enzyme Methylation Assay (Version A); assay type: biochemical
T2 construct: Full-length (FL)-PRMT5-MEP50 enzyme complex (recombinant proteins from baculovirus-transfected Sf21 cells: FL-PRMT5; MW=73837 kDa and FL-MEP50; MW=38614); made in house; host or cells: baculovirus-transfected Sf21 cells
Description: PRMT5-MEP50 Enzyme Methylation Assay (Version A)
PRMT5-MEP50 biochemical assay is a direct measurement of the methylation activity of the enzyme complex on a short peptide substrate derived from the N-terminus of H4 histone. Methylation experiment was performed with recombinant PRMT5-MEP50 protein complex. The assessment of inhibitory effect of small molecules was measured by the effectiveness of the compounds to inhibit this reaction (EC50).
In this assay, the potency (EC50) of each compound was determined from a twenty-point (1:2 serial dilution; top compound concentration of 100000 nM) titration curve using the following outlined procedure. To each well of a white ProxiPlus 384 well-plate, 100 nL of compound (1% DMSO in final assay volume of 10 μL) was dispensed, followed by the addition of 8 μL of 1× assay buffer (50 mM Bicine pH 8.0, 1 mM DTT, 0.004% Tween20, 0.01% BSA) containing 1.25 nM of Full-length (FL)-PRMT5-MEP50 enzyme complex (recombinant proteins from baculovirus-transfected Sf21 cells: FL-PRMT5; MW=[…] and FL-MEP50; MW=38614) and 1 μL of 150 μM S-(5′-Adenosyl)-L-Methionine Chloride (SAM). A plate was sealed and placed in a 37° C. humidified chamber for a 60 minutes pre-incubation with compound. Subsequently, each reaction was initiated by the addition of 1 μL 1× assay buffer containing 750 nM biotinylated H4R3 (MeI) peptide. The final reaction in each well of 10 μL consists of 1.0 nM PRMT5-MEP50, 75 nM biotinylated-peptide, and 15 μM SAM. Methylation reactions were allowed to proceed for 150 minutes in a sealed plate at 37° C. Reactions were immediately quenched by the addition of 1 μL of 5% formic acid. A plate was then frozen and shipped to SAMDI™ Tech Inc. to determine the percent conversion from H4R3 (MeI) to H4R3 (Me2). Dose-response curves were generated by plotting percent effect (% product conversion; Y-axis) vs. Log 10 compound concentrations (X-axis). EC50 values were determined by non-linear regression according to models for either sigmoidal (4 parameters) or biphasic (7 parameters) dose-response curves.

[2] = only one EC50 shown: 4 parameters single site sigmoidal model, 60 min pre-incubation with SAM, read-out: Enzyme Methylation Assay Version A (EC50)
[3] = first of two EC50s: 7 parameters biphasic model, read-out: Enzyme Methylation Assay Version A (EC50_1)
[4] = second of two EC50s: 7 parameters biphasic model, read-out: Enzyme Methylation Assay Version A (EC50_2)

T2 sequence (O14744 whole entry): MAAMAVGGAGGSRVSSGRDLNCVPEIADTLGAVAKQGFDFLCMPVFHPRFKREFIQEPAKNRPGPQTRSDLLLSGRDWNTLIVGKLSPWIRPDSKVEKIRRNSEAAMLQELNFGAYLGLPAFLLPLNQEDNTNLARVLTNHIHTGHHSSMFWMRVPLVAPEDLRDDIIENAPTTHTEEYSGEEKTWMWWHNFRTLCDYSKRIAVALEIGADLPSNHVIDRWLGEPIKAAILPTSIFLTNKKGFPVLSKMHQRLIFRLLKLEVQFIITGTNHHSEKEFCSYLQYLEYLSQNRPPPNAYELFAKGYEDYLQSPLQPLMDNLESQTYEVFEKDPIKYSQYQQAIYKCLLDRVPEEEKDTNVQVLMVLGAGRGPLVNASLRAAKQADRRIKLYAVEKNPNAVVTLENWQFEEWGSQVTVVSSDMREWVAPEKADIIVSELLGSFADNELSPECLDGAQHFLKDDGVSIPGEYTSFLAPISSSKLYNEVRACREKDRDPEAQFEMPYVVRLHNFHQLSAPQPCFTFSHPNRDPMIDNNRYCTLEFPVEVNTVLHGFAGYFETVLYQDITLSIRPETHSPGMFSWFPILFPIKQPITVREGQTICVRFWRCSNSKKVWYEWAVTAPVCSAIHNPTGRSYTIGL
T2 sequence (Q9BQA1 whole entry partner): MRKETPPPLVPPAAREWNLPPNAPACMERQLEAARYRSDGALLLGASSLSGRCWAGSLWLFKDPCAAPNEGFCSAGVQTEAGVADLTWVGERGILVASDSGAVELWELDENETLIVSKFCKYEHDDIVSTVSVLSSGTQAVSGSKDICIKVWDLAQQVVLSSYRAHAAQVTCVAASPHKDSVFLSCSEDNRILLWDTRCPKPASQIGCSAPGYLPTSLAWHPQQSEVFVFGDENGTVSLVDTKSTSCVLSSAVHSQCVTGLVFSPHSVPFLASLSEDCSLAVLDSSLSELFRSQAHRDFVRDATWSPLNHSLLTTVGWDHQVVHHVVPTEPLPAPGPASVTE
T1 sequence (O14744 whole entry): as the sequence (O14744 whole entry) above
T1 sequence (Q9BQA1 whole entry partner): as the sequence (Q9BQA1 whole entry partner) above

| SMILES | EC50 (PRMT5) [nM] | EC50 [1, 2] [nM] | EC50 [1, 3] [nM] | EC50 [1, 4] [nM] |
| --- | --- | --- | --- | --- |
| CC1(C)CC(C2Oc3ccc(C(=O)N4CC[C@H](N5CCc6ccccc6C5)[C@@H](O)C4)cc3NC2=O)CO1 (single isomer, unassigned) [Example 84] | 5.6 | 0.9 |  |  |
| CC1(C)CC(C2Oc3ccc(C(=O)N4CC[C@H](N5CCc6ccccc6C5)[C@@H](O)C4)cc3NC2=O)CO1 (single isomer, unassigned) [Example 85] | 6.4 | 1.3 |  |  |
| CC(=O)N1CCC(Nc2cc(C(=O)N3CC[C@H](N4CCc5ccccc5C4)[C@@H](O)C3)c(F)cn2)C1 (single isomer, unassigned) [Example 113] | 50 |  | 3.1 | 9550 |
| CC(=O)N1CCC(Nc2cc(C(=O)N3CC[C@H](N4CCc5ccccc5C4)[C@@H](O)C3)c(F)cn2)C1 (single isomer, unassigned) [Example 114] | 28 |  | 3.3 | 3130 |
| O=C(c1cc(NC2CCN3C(=O)CCC3C2)ncc1F)N1CC[C@H](N2CCc3ccccc3C2)[C@@H](O)C1 (single isomer, unassigned) [Example 115] | 140 | 6.5 |  |  |
| O=C(c1cc(NC2CCN3C(=O)CCC3C2)ncc1F)N1CC[C@H](N2CCc3ccccc3C2)[C@@H](O)C1 (single isomer, unassigned) [Example 116] | 6.6 | 3.9 |  |  |
| O=C(c1cc(NC2CCN3C(=O)CCC3C2)ncc1F)N1CC[C@H](N2CCc3ccccc3C2)[C@@H](O)C1 (single isomer, unassigned) [Example 117] | 3.3 | 1.8 |  |  |
| O=C(c1cc(NC2CCN3C(=O)CCC3C2)ncc1F)N1CC[C@H](N2CCc3ccccc3C2)[C@@H](O)C1 (single isomer, unassigned) [Example 118] | 55 |  | 2.9 | 10600 |
| CC(=O)N1CC2CC1CC2Nc1cc(C(=O)N2CC[C@H](N3CCc4ccccc4C3)[C@@H](O)C2)c(F)cn1 (single isomer, unassigned) [Example 119] | 15 | 3.5 |  |  |
| CC(=O)N1CC2CC1CC2Nc1cc(C(=O)N2CC[C@H](N3CCc4ccccc4C3)[C@@H](O)C2)c(F)cn1 (single isomer, unassigned) [Example 120] | 316 |  | 20 | 5490 |
| CC1(C)CC1(C#N)c1cnc2nc(C(=O)N3CC[C@H](N4CCc5ccccc5C4)[C@@H](O)C3)cn2c1 (single isomer, unassigned) [Example 127] | 12 | 0.4 |  |  |
| CC1(C)CC1(C#N)c1cnc2nc(C(=O)N3CC[C@H](N4CCc5ccccc5C4)[C@@H](O)C3)cn2c1 (single isomer, unassigned) [Example 128] | 1.1 | 0.3 |  |  |
| CC1CC1c1cnc2nc(C(=O)N3CCC(N4CCc5ccccc5C4)[C@@H](O)C3)cn2c1 (single isomer, unassigned) [Example 129] | 6.4 | 1.4 |  |  |
| CC1CC1c1cnc2nc(C(=O)N3CCC(N4CCc5ccccc5C4)[C@@H](O)C3)cn2c1 (single isomer, unassigned) [Example 130] | 3.8 | 0.7 |  |  |
| CC1CC1c1cnc2nc(C(=O)N3CCC(N4CCc5ccccc5C4)[C@@H](O)C3)cn2c1 (single isomer, unassigned) [Example 131] | 4.6 | 0.5 |  |  |
| CC(=O)N1CCC(Nc2nccc(C(=O)N3CC[C@H](N4CCc5ccccc5C4)[C@@H](O)C3)c2F)CC1 [Example 18, 1-(4-((4-((3S,4S)-4-(3,4-dihydroisoquinolin-2(1H)-yl)-3-hydroxypiperidine-l-carbonyl)-3-fluoropyridin-2-yl)amino)piperidin-1-yl)ethan-1-one] | 54 |  | ~3 | 6760 |
| CC(=O)N1CCC(Nc2nccc(C(=O)N3CC[C@@H](N4CCc5ccccc5C4)[C@H](O)C3)c2F)CC1 [Example 19, 1-(4-((4-((3R,4R)-4-(3,4-dihydroisoquinolin-2(1H)-yl)-3-hydroxypiperidine-1-carbonyl)-3-fluoropyridin-2-yl)amino)piperidin-1-yl)ethan-1-one] | 9800 | 507 |  |  |
| CCOc1nc(Br)cn2cc(C(=O)N3CC[C@H](N4CCc5ccccc5C4)[C@@H](O)C3)nc12 [Example 51, (6-bromo-8-ethoxyimidazo[1,2-a]pyrazin-2-yl)((3S,4S)-4-(3,4-dihydroisoquinolin-2(1H)-yl)-3-hydroxypiperidin-1-yl)methanone] | 6.3 |  | 0.4 | 120 |
| O=C(c1ccnc(C(F)F)c1)N1CC[C@H](N2CCc3ccccc3C2)[C@@H](O)C1 [Example 52, (2-(difluoromethyl)pyridin-4-yl)((3S,4S)-4-(3,4-dihydroisoquinolin-2(1H)-yl)-3-hydroxypiperidin-1-yl)methanone] | > 10000 | 580 |  |  |
| O=C(c1ccnc(OC(F)F)c1)N1CC[C@H](N2CCc3ccccc3C2)[C@@H](O)C1 [Example 53, (2-(difluoromethoxy)pyridin-4-yl)((3S,4S)-4-(3,4-dihydroisoquinolin-2(1H)-yl)-3-hydroxypiperidin-1-yl)methanone] | > 10000 |  | ~28 | > 10000 |
| Cc1nc(C)c(-c2cnc3nc(C(=O)N4CC[C@H](N5CCc6ccccc6C5)[C@@H](O)C4)cn3c2)s1 [Example 56, [(3S,4S)-4-(3,4-dihydroisoquinolin-2(1H)-yl)-3-hydroxypiperidin-1-yl][6-(2,4-dimethyl-1,3-thiazol-5-yl)imidazo[1,2-a]pyrimidin-2-yl]methanone] | 1.8 | 0.4 |  |  |
| Cn1nccc1-c1cnc2nc(C(=O)N3CC[C@H](N4CCc5ccccc5C4)[C@@H](O)C3)cn2c1 [Example 57, [(3S,4S)-4-(3,4-dihydroisoquinolin-2(1H)-yl)-3-hydroxypiperidin-1-yl][6-(1-methyl-1H-pyrazol-5-yl)imidazo[1,2-a]pyrimidin-2-yl]methanone] | 8.7 | 1.1 |  |  |
| CO[C@H](C)c1cc(C(C)C)cn2cc(C(=O)N3CC[C@H](N4CCc5ccccc5C4)[C@@H](O)C3)nc12 [Example 58, [(3S,4S)-4-(3,4-dihydroisoquinolin-2(1H)-yl)-3-hydroxypiperidin-1-yl]{8-[(1R)-1-methoxyethyl]-6-(propan-2-yl)imidazo[1,2-a]pyridin-2-yl}methanone] | 0.6 | 0.3 |  |  |
| CO[C@H](C)c1cc(C)cn2cc(C(=O)N3CC[C@H](N4CCc5ccccc5C4)[C@@H](O)C3)nc12 [Example 59, [(3S,4S)-4-(3,4-dihydroisoquinolin-2(1H)-yl)-3-hydroxypiperidin-1-yl]{8-[(1R)-1-methoxyethyl]-6-methylimidazo[1,2-a]pyridin-2-yl}methanone] | 4.4 | 0.5 |  |  |
| CC(C)N1CCNc2cc(C(=O)N3CC[C@H](N4CCc5ccccc5C4)[C@@H](O)C3)ccc2C1=O [Example 62, 8-((3S,4S)-4-(3,4-dihydroisoquinolin-2(1H)-yl)-3-hydroxypiperidine-1-carbonyl)-4-isopropyl-1,2,3,4-tetrahydro-5H-benzo[e][1,4]diazepin-5-one] | 21 | 3.6 |  |  |
| O=C(c1ccc2c(O)c(C3CC3)cnc2c1)N1CC[C@H](N2CCc3ccccc3C2)[C@@H](O)C1 [Example 63, (3-cyclopropyl-4-hydroxyquinolin-7-yl)((3S,4S)-4-(3,4-dihydroisoquinolin-2(1H)-yl)-3-hydroxypiperidin-1-yl)methanone] | 140 |  | 0.7 | 3310 |
| CCN1CCNc2cc(C(=O)N3CC[C@H](N4CCc5ccccc5C4)[C@@H](O)C3)ccc2C1=O [Example 64, 8-((3S,4S)-4-(3,4-dihydroisoquinolin-2(1H)-yl)-3-hydroxypiperidine-1-carbonyl)-4-ethyl-1,2,3,4-tetrahydro-5H-benzo[e][1,4]diazepin-5-one] | 45 |  | 1.9 | 1660 |
